Experimental data taken from US6222035A, “[1,2,4] triazolo [1,5-C] pyrimidine derivatives” (Kyowa Hakko Kogyo Co., Ltd., priority 1997, dated 2001).

Test system: CGS 21680-induced catalepsy in mice
Test: Activity on CGS 21680-induced Catalepsy
Type: in vivo, mouse (male ddY)
Details: 10 mg/kg oral; for Total score (catalepsy): 10 animals, maximum 50 points, control 48; for Number of Animals showing remission: catalepsy score 4 points or less in 10 cases; for inhibition in vivo at 10 mg/kg: Mus musculus, CGS 21680-induced catalepsy, read-out: Remission ratio (%)
Experimental: Activity on CGS 21680-induced Catalepsy
Parkinson's disease is motor deficit based on the degeneration and cell death of the nigrostriatal dopaminergic neuron. […] [Journal of Neuroscience, 16: 605 (1996)]. Accordingly, it is considered that adenosine A2A receptor agonists positively regulate the output of the striopallidal GABAergic neurons and, as a result, catalepsy is induced by the administration of CGS 21680.
This test was carried out using 10 animals per group of male ddY mice of 5 week age (22 to 25 g in body weight, Japan SLC). CGS 21680 (manufactured by RBI) was dissolved in a physiological saline (manufactured by Otsuka Pharmaceutical), and 10 μg/20 μl of the solution was injected into mouse intracerebro-ventricle. Test compounds were used by suspending them in distilled water containing 0.3% of polyoxyethylene(20)sorbitan monooleate (hereinafter referred to as "Tween 80") (manufactured by Otsuka Pharmaceutical). […] One hour after the administration of the test compound, only forelimbs or only hindlimbs of each animal were laid on a vertically arranged stand made of acryl, having a size of 4.5 cm in height and 1.0 cm in width, to measure catalepsy symptoms. All of the compounds were administered orally in a dose of 10 mg/kg.
The effect was judged by total catalepsy scores of 10 animals in one group (the maximum is 50 points). When the total score was 40 points or less, the activity of drugs was judged positive. The number of animals showing remission of catalepsy was expressed by the number of cases in which the catalepsy score was 4 points or less in 10 cases. The catalepsy remission ratio was expressed as the percentage of the total score in the test compound-administered group to the total score in the control group.

SMILES	Total score (catalepsy)	Number of Animals showing remission	inhibition in vivo at 10 mg/kg [%]
CCC(C)N1CCN(c2cc3nc(-c4ccco4)nn3c(N)n2)CC1 (racemic) [Compound 140, (±)-5-Amino-2-(2-furyl)-7-(4-(1-methylpropyl)piperazinyl)[1,2,4]triazolo[1,5-c]pyrimidine]	13	10	74
CCN1CCN(c2cc3nc(-c4ccco4)nn3c(N)n2)CC1 [Compound 60, 5-Amino-7-(4-ethylpiperazinyl)-2-(2-furyl)[1,2,4]triazolo[1,5-c]pyrimidine]	10	8	76
Nc1nc(N2CCN(CCO)CC2)cc2nc(-c3ccco3)nn12 [Compound 62, 5-Amino-2-(2-furyl)-7-[4-(2-hydroxyethyl)piperazinyl][1,2,4]triazolo[1,5-c]pyrimidine]	4	10	88
Nc1nc(N2CCN(c3ncccn3)CC2)cc2nc(-c3ccco3)nn12 [Compound 64, 5-Amino-2-(2-furyl)-7-[4-(2-pyrimidyl)piperazinyl][1,2,4]triazolo[1,5-c]pyrimidine]	5	10	88
COCCN1CCN(c2cc3nc(-c4ccco4)nn3c(N)n2)CC1 [Compound 74, 5-Amino-7-[4-(2-methoxyethyl)piperazinyl]-2-(2-furyl)[1,2,4]triazolo[1,5-c]pyrimidine]	0	10	98
Nc1nc(N2CCN(c3nc4ccccc4s3)CC2)cc2nc(-c3ccco3)nn12 [Compound 95, 5-Amino-7-(4-(2-benzothiazolyl)piperazinyl)-2-(2-furyl)[1,2,4]triazolo[1,5-c]pyrimidine]	16	8	66
COCCOCCN1CCN(c2cc3nc(-c4ccco4)nn3c(N)n2)CC1 [Compound 104, 5-Amino-2-(2-furyl)-7-(4-(2-(2-methoxyethoxy)ethyl)piperazinyl)[1,2,4]triazolo[1,5-c]pyrimidine]	4	10	92
C=CCCN1CCN(c2cc3nc(-c4ccco4)nn3c(N)n2)CC1 [Compound 125, 5-Amino-2-(2-furyl)-7-(4-homoallylpiperazinyl)[1,2,4]triazolo[1,5-c]pyrimidine]	13	10	74
Nc1nc(N2CCN(CCCCF)CC2)cc2nc(-c3ccco3)nn12 [Compound 128, 5-Amino-7-(4-(4-fluorobutyl)piperazinyl)-2-(2-furyl)[1,2,4]triazolo[1,5-c]pyrimidine]	9	10	80
CC(C)CN1CCN(c2cc3nc(-c4ccco4)nn3c(N)n2)CC1 [Compound 136, 5-Amino-2-(2-furyl)-7-(4-(2-methylpropyl)piperazinyl)[1,2,4]triazolo[1,5-c]pyrimidine]	1	10	98
CC(C)N1CCN(c2cc3nc(-c4ccco4)nn3c(N)n2)CC1 [Compound 139, 5-Amino-2-(2-furyl)-7-(4-isopropylpiperazinyl)[1,2,4]triazolo[1,5-c]pyrimidine]	10	9	80
Nc1nc(N2CCN(Cc3csnn3)CC2)cc2nc(-c3ccco3)nn12 [Compound 143, 5-Amino-2-(2-furyl)-7-(4-(1,2,3-thiadiazol-4-ylmethyl)piperazinyl)-2-(2-furyl)[1,2,4]triazolo[1,5-c]pyrimidine]	0	10	98
